The values that follow are results of earlier work, collected in patent US20120201914A1, “Method and Composition for Improving Animal Oral Health” (priority 2011, published 2012).

This series concerns various oral pathogens, such as S. mutans, C. albicans, A. actinomycetemcomitans, F. nucleatum, and P. gingivalis. As to conditions: against various oral pathogens; recent studies.
As for `CC/C=C\C/C=C\C/C=C\CCCCCCCC(=O)OCC` [ALA-EE], the antibacterial activity entry was “antibacterial activities”. As for `CC/C=C\C/C=C\C/C=C\CCCCCCCC(=O)O` [ALA, α-linolenic acid], the antibacterial activity result is given as “antibacterial activities”. With `CC/C=C\C/C=C\C/C=C\C/C=C\C/C=C\C/C=C\CCC(=O)OC` [DHA-ME], the antibacterial activity entry is recorded as “antibacterial activities”. For the molecule `CC/C=C\C/C=C\C/C=C\C/C=C\C/C=C\CCCC(=O)OCC` [EPA-EE], the antibacterial activity result was “antibacterial activities”. Turning to `CC/C=C\C/C=C\C/C=C\C/C=C\C/C=C\CCCC(=O)OC` [EPA-ME], the antibacterial activity result is on record as “antibacterial activities”. Take `CC/C=C\C/C=C\C/C=C\CCCCCCCC(=O)OC` [ALA-ME]: the antibacterial activity result is “antibacterial activities”. For `CC/C=C\C/C=C\C/C=C\C/C=C\C/C=C\C/C=C\CCC(=O)OCC` [DHA-EE], the antibacterial activity entry is given as “antibacterial activities”.
